Results published in patent US8802713B2, “3-alkoxy-1-phenylpyrazole derivatives and pesticides” (Kumiai Chemical Industry Co., Ltd., priority 2007, dated 2014).
Where two headings read alike, the source gives them in different places.

Key:
[1] = tested on: cotton aphid; test: Insecticidal test on cotton aphid (seedling dip); format: in vivo; details: Aphis gossypii, in Cucumis sativus, 72 h
Outline: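 Cucumber seedlings carrying cotton aphid larvae were dipped in a water-diluted wettable powder at 500 ppm active ingredient, then air-dried. After 3 days at 25° C. live insects were counted and mortality calculated; single series.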

[2] = tested on: cotton bollworm; test: Insecticidal test on cotton bollworm; format: in vivo; details: Helicoverpa armigera, 144 h
Description: A wettable powder prepared in accordance with Formulation Example 2 was diluted with water to a concentration of an active ingredient of 500 ppm. Cabbage leaves were dipped in this solution and dried in air and then put in a plastic cup having a capacity of 60 mL. Five hatched larvae of cotton bollworm were released in the cup, and the cup was lidded and placed in a thermostatic chamber at 25° C. for 6 days, and the number of dead larvae were assessed for calculation of the mortality by Equation 2. The test was carried out by two series system.

[3] = tested on: two-spotted spider mites; test: Miticidal test on two-spotted spider mites (seedling dip); format: in vivo, Tetranvchus urticae; details: Glycine max, 312 h, read-out: protective value
Outline: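 Soybean seedlings carrying adult mites were dipped in wettable-powder dilution at 500 ppm active ingredient, air-dried, and held at 25° C for 13 days. Live mites were counted and a protective value calculated.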

[4] = tested on: brown rice planthopper; test: Insecticidal test on brown rice planthopper; format: in vivo; details: 144 h
Outline: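 Rice sprouts dipped in 500 ppm active ingredient (water-diluted wettable powder), then exposed to ten third-instar brown rice planthopper larvae. Held at 25° C. for 6 days; dead larvae counted for mortality, single series.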

[5] = tested on: diamondback moth; test: Insecticidal test on diamondback moth; format: in vivo; details: Plutella xylostella, 144 h
Outline: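 Cabbage leaves were dipped in a wettable-powder dilution at 500 ppm active ingredient, air-dried and given 10 second-instar larvae per cup. Mortality was counted after 6 days at 25 °C, in a single series.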

[6] = tested on: cotton aphid; test: Insecticidal test on cotton aphid (root zone irrigation); format: in vivo; details: Aphis gossypii, in Cucumis sativus, 72 h
Description: A wettable powder prepared in accordance with Formulation Example 2 was diluted with water to a concentration of an active ingredient of 100 ppm. The root zone of cucumber seedlings which had been inoculated with larvae of cotton aphid was irrigated with 5 mL of the solution. The treated cucumber seedlings were placed in a thermostatic chamber at 25° C. for 3 days, and the live insects were counted for calculation of the mortality by Equation 2. The test was carried out by one series system.

[7] = tested on: southern root-knot nematodes; test: Nematicidal test on root-knot nematode; format: in vivo; details: Meloidogyne incognita, 120 h
Description: A compound to be tested was dissolved in N,N-dimethylformamide containing 1 mass % of tween 20, and this solution was diluted with distilled water to a concentration of an active ingredient of 20 ppm. 0.5 mL of the solution was mixed with 0.5 mL of a suspension containing about 30 second-instar larvaes of southern root-knot nematodes, and the mixture was placed in a thermostatic chamber at 25° C. for 5 days. The number of dead nematodes and the number of live nematodes were assessed by a microscope for calculation of the mortality by Equation 3. The test was carried out by two series system.

[8] = 500 ppm active ingredient, soybean seedlings with imago mites dipped, 25° C., 13 days

CC(=O)Nc1cc(OCC(F)(F)C(F)(F)F)nn1-c1cc([S+]([O-])CC(F)(F)F)c(C)cc1F (stereo not shown) [1-18, 5-acetylamino-1-{2-fluoro-4-methyl-5-(2,2,2-trifluoroethylsulfinyl)phenyl}-3-(2,2,3,3,3-pentafluoropropoxy)pyrazole]
≥ 90%: mortality at 500 ppm [1] | mortality at 500 ppm ([2]; in Brassica oleracea) | pest or weed control at 500 ppm [3, 8] | mortality at 500 ppm [4] | mortality at 500 ppm ([5]; in Brassica oleracea) | mortality at 100 ppm [6]

CNc1cc(OC(F)(F)C(F)OC(F)(F)C(F)(F)C(F)(F)F)nn1-c1cc([S+]([O-])CC(F)(F)F)c(C)cc1F (stereo not shown) [1-348, 1-{2-fluoro-4-methyl-5-(2,2,2-trifluoroethylsulfinyl)phenyl}-5-methylamino-3-{1,1,2-trifluoro-2-(heptafluoropropoxy)ethoxy}pyrazole]
≥ 90%: mortality at 20 ppm [7] | mortality at 500 ppm ([2]; 500 ppm active ingredient, cabbage leaves dipped, hatched larvae, 25° C., 6 days, read-out: mortality) | pest or weed control at 500 ppm [3] | mortality at 500 ppm ([5]; 500 ppm active ingredient, cabbage leaves dipped, second-instar larvae, 25° C., 6 days, read-out: mortality)

Cc1cc(F)c(-n2nc(OCC(F)(F)C(F)(F)F)cc2C)cc1[S+]([O-])CC(F)(F)F (stereo not shown) [1-92, 1-{2-fluoro-4-methyl-5-(2,2,2-trifluoroethylsulfinyl)phenyl}-5-methyl-3-(2,2,3,3,3-pentafluoropropoxy)pyrazole]
≥ 90%: mortality at 500 ppm [1] | mortality at 20 ppm [7] | pest or weed control at 500 ppm [3, 8] | mortality at 500 ppm [4]

C#CCNc1cc(OCC(F)(F)C(F)(F)F)nn1-c1cc([S+]([O-])CC(F)(F)F)c(C)cc1F (stereo not shown) [1-162, 1-{2-fluoro-4-methyl-5-(2,2,2-trifluoroethylsulfinyl)phenyl}-3-(2,2,3,3,3-pentafluoropropoxy)-5-(2-propynylamino)pyrazole]
≥ 90%: mortality at 500 ppm [1] | mortality at 20 ppm [7] | mortality at 500 ppm ([2]; in Brassica oleracea) | pest or weed control at 500 ppm [3, 8] | mortality at 500 ppm ([5]; in Brassica oleracea)
